According to US20230116703A1, “NOVEL ERGOLINES AND METHODS OF TREATING MOOD DISORDERS” (priority 2021, published 2023):
Read-outs that look alike come from different tables or passages of the source.

How the values were obtained:
D2 receptor = D2 receptor (Homo sapiens, UniProt P14416); assay: FLIPR Ca^2+ flux agonist assay at D2; format: cell-based
Experimental: (§1) Functional Assays at Adrenergic and Dopamine Receptors. Agonist activity at Alpha1A, Alpha2A, D1, and D2 receptors was determined using a FLIPR Ca^2+ flux assay at WuXi AppTec (Hong Kong) Limited according to their standard protocols. Briefly, stably transfected cells expressing the receptor of interest were grown and plated in a 384 well plate and incubated at 37° C. and 5% CO2 overnight. A solution of 250 mM probenecid in 1 mL FLIPR assay buffer was prepared fresh. This was combined with a fluorescent dye (Fluo-4 Direct™) to make a final assay concentration of 2.5 mM. […] The fluorescent dye was then added to the assay plate along with assay buffer to a final volume of 40 μL. The cell plate was incubated for 50 min at 37° C. and 5% CO2 and placed into the FLIPR Tetra along with the compound plate. 10 μL of references and compounds were then transferred from the compound plate into the cell plate and the fluorescent signal was read.

5-HT1A receptor = target: T1, 5-HT1A receptor (Homo sapiens, UniProt P08908); assay: cell-based; settings: Ca^2+ flux, agonist; read-out: 5-HT1A EC50
T1 construct: host or cells: CHO cells
T1 sequence (P08908 1-422): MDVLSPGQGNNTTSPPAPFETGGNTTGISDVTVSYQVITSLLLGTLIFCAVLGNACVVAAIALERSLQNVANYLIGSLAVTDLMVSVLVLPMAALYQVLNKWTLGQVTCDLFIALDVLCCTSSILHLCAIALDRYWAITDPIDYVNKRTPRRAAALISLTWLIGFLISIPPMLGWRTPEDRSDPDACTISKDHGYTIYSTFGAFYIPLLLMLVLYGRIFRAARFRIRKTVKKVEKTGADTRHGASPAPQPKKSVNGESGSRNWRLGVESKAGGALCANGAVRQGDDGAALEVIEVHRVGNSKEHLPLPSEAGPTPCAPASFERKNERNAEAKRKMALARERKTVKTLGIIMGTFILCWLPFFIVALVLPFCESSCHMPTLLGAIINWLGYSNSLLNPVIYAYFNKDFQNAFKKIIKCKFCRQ

5-HT2B receptor = target: T2, 5-HT2B receptor (Homo sapiens, UniProt P41595); assay: cell-based; settings: Ca^2+ flux, agonist; for EC50: read-out: 5-HT2B EC50
T2 construct: host or cells: HEK293
T2 sequence (P41595 whole entry): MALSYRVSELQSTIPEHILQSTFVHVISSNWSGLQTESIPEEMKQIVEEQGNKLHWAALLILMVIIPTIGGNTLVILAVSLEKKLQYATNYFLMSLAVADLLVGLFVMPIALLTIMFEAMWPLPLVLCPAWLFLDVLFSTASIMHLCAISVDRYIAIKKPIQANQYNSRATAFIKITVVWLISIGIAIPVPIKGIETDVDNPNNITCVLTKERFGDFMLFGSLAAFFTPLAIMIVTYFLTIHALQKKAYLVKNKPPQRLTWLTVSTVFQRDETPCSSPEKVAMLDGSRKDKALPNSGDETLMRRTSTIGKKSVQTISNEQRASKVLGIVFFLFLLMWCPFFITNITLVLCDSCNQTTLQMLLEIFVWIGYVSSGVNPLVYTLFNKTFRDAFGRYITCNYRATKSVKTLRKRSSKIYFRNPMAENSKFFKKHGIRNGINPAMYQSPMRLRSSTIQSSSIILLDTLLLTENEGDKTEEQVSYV

5-HT2A receptor [1] = target: T3, 5-HT2A receptor (Homo sapiens, UniProt P28223); assay: biochemical; format: binding; settings: 1 nM [^3H]ketanserin, HEK293 stable cell line; read-out: 5-HT2A Receptor Ki (nM) ([^3H]ketanserin)
T3 construct: host or cells: HEK293
T3 sequence (P28223 whole entry): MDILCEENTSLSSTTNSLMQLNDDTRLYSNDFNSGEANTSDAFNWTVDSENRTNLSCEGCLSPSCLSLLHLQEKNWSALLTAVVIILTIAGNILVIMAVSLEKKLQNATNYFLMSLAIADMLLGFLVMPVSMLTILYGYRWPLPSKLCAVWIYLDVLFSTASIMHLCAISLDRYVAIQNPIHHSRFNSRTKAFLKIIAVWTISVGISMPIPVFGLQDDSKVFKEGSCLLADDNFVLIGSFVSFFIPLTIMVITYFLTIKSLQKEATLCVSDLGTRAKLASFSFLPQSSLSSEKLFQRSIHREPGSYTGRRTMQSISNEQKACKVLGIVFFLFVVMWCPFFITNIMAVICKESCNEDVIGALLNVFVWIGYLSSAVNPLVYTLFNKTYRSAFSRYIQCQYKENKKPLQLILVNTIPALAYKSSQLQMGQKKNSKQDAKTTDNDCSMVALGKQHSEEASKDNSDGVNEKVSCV
Method in brief: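 Test compounds competed with [^3H]ketanserin for receptor binding, and affinity was derived from the radioligand displacement.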

Alpha1A receptor = target: T4, Alpha1A receptor (Homo sapiens, UniProt P35348); assay: FLIPR Ca^2+ flux agonist assay at Alpha1A; format: cell-based
T4 sequence (P35348 1-466): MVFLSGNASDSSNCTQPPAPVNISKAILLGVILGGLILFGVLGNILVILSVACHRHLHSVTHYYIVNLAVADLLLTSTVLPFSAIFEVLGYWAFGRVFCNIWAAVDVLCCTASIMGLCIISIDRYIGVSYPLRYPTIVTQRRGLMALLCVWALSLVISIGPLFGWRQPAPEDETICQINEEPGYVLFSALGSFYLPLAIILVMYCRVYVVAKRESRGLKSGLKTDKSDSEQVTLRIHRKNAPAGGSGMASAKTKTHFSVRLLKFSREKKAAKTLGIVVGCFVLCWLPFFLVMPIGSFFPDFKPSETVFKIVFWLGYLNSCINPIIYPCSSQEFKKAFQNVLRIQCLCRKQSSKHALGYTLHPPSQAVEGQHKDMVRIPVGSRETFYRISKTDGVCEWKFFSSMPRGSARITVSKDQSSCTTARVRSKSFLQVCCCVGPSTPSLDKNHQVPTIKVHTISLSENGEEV
Experimental: Disclosed compounds were tested for agonist activity at several adrenergic (Alpha1A and Alpha2A) and dopamine (D1 and D2) receptor subtypes using Ca^2+ flux functional assays, with the results summarized in Table 6. Selectivity for the 5-HT2A receptor over these other targets varied depending on the specific target and compound.
Functional Assays at Adrenergic and Dopamine Receptors. Agonist activity at Alpha1A, Alpha2A, D1, and D2 receptors was determined using a FLIPR Ca^2+ flux assay at WuXi AppTec (Hong Kong) Limited according to their standard protocols. Briefly, stably transfected cells expressing the receptor of interest were grown and plated in a 384 well plate and incubated at 37° C. and 5% CO2 overnight. A solution of 250 mM probenecid in 1 mL FLIPR assay buffer was prepared fresh. This was combined with a fluorescent dye (Fluo-4 Direct™) to make a final assay concentration of 2.5 mM. Compounds were diluted 1:3.16 for 10 points and 750 nL was added to a 384 well compound plate using ECHO along with 30 μL assay buffer. The fluorescent dye was then added to the assay plate along with assay buffer to a final volume of 40 μL. The cell plate was incubated for 50 min at 37° C. and 5% CO2 and placed into the FLIPR Tetra along with the compound plate. 10 μL of references and compounds were then transferred from the compound plate into the cell plate and the fluorescent signal was read.

5-HT2A receptor [2] = target: T3, 5-HT2A receptor; assay: cell-based; format: cell-based; settings: for EC50: Ca^2+ flux, agonist, read-out: 5-HT2A EC50
D1 receptor = D1 receptor (Homo sapiens, UniProt P21728); assay: FLIPR Ca^2+ flux agonist assay at D1; format: cell-based
D1 receptor, sequence (P21728 whole entry): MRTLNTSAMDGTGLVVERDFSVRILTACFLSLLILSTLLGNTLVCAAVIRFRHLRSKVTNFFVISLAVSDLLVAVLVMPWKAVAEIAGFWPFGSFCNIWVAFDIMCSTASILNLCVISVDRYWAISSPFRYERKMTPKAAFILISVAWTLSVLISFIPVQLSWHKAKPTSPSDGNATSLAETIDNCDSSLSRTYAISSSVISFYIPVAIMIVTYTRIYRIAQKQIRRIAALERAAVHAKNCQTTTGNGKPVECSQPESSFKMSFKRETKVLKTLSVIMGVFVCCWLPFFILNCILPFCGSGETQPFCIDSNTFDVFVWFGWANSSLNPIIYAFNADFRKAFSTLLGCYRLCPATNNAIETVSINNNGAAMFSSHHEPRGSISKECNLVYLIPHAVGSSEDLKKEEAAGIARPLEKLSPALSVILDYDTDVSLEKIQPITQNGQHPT
Experimental: as §1

[3] = Ca^2+ flux, agonist, read-out: D2 EC50
[4] = Ca^2+ flux, agonist, read-out: Alpha1A EC50
[5] = Ca^2+ flux, agonist, read-out: D1 EC50

D2 receptor, sequence (P14416 whole entry): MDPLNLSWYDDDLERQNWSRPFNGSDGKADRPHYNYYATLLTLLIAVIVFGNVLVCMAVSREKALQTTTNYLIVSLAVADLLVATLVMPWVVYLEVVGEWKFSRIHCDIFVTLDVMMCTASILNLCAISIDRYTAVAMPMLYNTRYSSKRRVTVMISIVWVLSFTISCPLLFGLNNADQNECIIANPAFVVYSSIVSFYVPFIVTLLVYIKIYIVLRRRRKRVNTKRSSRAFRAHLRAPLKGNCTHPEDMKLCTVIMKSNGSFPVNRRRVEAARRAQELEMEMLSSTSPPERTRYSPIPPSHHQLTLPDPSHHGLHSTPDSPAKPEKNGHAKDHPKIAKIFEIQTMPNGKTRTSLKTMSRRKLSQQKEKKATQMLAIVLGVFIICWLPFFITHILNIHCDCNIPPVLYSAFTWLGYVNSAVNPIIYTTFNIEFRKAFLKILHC

Row | SMILES | EC50 (D2 receptor) | EC50 (5-HT1A receptor) | EC50 (5-HT2B receptor) | Ki (5-HT2A receptor [1]) | EC50 (Alpha1A receptor) | EC50 (5-HT2A receptor [2]) | EC50 (D1 receptor) | EC50 (D2 receptor; [3]) | EC50 (Alpha1A receptor; [4]) | EC50 (D1 receptor; [5]) | 5-HT2B % Act @ Max Dose (5-HT2B receptor) | selectivity for the 5-HT2A receptor over the tested adrenergic and dopamine receptors (in words) (5-HT2A receptor [2]; Ca^2+ flux functional assays)
1 | CCN(CC)C(=O)[C@@H]1C=C2c3cccc4[nH]cc(c34)C[C@H]2N(CCCF)C1 [Compound 2, (6aR,9R)—N,N-diethyl-7-(3-fluoropropyl)-4,6,6a,7,8,9-hexahydroindolo[4,3-fg]quinoline-9-carboxamide] | 27.7 nM | 25.4 nM | 202 nM | 2.79 nM | 237 nM | 11.1 nM | 86.4 nM |  |  |  |  | 
2 | CCN(CC)C(=O)[C@@H]1C=C2c3cccc4[nH]cc(c34)C[C@H]2N(Cc2ccccc2OC)C1 [Compound 10, (6aR,9R)—N,N-diethyl-7-(2-methoxybenzyl)-4,6,6a,7,8,9-hexahydroindolo[4,3-fg]quinoline-9-carboxamide] |  | 30600 nM | > 10000 nM | 32.7 nM |  | 643 nM |  | 983 nM | > 31600 nM | 2780 nM |  | 
3 | CCN(CC)C(=O)[C@@H]1C=C2c3cccc4[nH]cc(c34)C[C@H]2N(CCc2ccccc2OC)C1 [Compound 11, (6aR,9R)—N,N-diethyl-7-(2-methoxyphenethyl)-4,6,6a,7,8,9-hexahydroindolo[4,3-fg]quinoline-9-carboxamide] |  | 29800 nM | > 10000 nM | 0.69 nM |  | 216 nM |  | 854 nM | > 31600 nM | 1590 nM | 2.5% | 
4 | CCCN1C[C@H](C(=O)N[C@H](C)CC)C=C2c3cccc4[nH]cc(c34)C[C@H]21 [Compound 3, (6aR,9R)—N—((R)-sec-butyl)-7-propyl-4,6,6a,7,8,9-hexahydroindolo[4,3-fg]quinoline-9-carboxamide] | 27.2 nM | 1.79 nM | 62 nM | 1.36 nM | 42.3 nM | 1.57 nM | 47.9 nM |  |  |  |  | exceptional selectivity
5 | CCCN1C[C@H](C(=O)N2[C@@H](C)C[C@@H]2C)C=C2c3cccc4[nH]cc(c34)C[C@H]21 [Compound 4, ((2S,4S)-2,4-dimethylazetidin-1-yl)((6aR,9R)-7-propyl-4,6,6a,7,8,9-hexahydroindolo[4,3-fg]quinolin-9-yl)methanone] | 21 nM | 5.88 nM | 511 nM | 3.07 nM | 116 nM | 21.3 nM | 81.8 nM |  |  |  |  | 
6 | CCCN1C[C@H](C(=O)NC(CC)CC)C=C2c3cccc4[nH]cc(c34)C[C@H]21 [Compound 6, (6aR,9R)—N-(pentan-3-yl)-7-propyl-4,6,6a,7,8,9-hexahydroindolo[4,3-fg]quinoline-9-carboxamide] | 7.01 nM | 36.1 nM | 253 nM | 1.16 nM |  | 11.3 nM | 18.1 nM |  |  |  |  | 
7 | CCCN1C[C@H](C(=O)N(CC)CC)C=C2c3cccc4[nH]cc(c34)C[C@H]21 [Compound 1, (6aR,9R)—N,N-diethyl-7-propyl-4,6,6a,7,8,9-hexahydroindolo[4,3-fg]quinoline-9-carboxamide] | 2.17 nM | 44.4 nM | 104 nM | 1.06 nM | 8.82 nM | 18.5 nM | 4.64 nM |  |  |  |  | 
